The text below walks through data of ChEMBL document CHEMBL1125048, “Affinity of 2-(tetrahydroisoquinolin-2-ylmethyl)- and 2-(isoindolin-2-ylmethyl)imidazolines for alpha-adrenoceptors. Differential affinity of imidazolines for the [3H]idazoxan-labeled alpha 2-adrenoceptor vs the [3H]yohimbine-labeled site” (J Med Chem, 1990).

The target of assay [1] is T1, Adrenergic receptor alpha-2 (Rattus norvegicus, UniProt P22086+P19328+P22909).
T1 sequence (P22086 whole entry): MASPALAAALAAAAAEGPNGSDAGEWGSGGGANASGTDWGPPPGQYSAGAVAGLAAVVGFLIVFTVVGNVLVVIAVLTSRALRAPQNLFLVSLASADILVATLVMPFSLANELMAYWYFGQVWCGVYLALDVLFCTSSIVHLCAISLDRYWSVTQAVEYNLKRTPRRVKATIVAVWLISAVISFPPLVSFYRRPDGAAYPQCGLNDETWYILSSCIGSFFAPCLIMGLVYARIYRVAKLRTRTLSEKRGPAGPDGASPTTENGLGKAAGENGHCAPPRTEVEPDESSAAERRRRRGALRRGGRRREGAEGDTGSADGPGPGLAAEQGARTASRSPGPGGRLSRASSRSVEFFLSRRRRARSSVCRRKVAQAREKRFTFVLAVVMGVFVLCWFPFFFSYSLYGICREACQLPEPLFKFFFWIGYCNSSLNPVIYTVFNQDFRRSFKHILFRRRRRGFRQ
T1 sequence (P19328 whole entry): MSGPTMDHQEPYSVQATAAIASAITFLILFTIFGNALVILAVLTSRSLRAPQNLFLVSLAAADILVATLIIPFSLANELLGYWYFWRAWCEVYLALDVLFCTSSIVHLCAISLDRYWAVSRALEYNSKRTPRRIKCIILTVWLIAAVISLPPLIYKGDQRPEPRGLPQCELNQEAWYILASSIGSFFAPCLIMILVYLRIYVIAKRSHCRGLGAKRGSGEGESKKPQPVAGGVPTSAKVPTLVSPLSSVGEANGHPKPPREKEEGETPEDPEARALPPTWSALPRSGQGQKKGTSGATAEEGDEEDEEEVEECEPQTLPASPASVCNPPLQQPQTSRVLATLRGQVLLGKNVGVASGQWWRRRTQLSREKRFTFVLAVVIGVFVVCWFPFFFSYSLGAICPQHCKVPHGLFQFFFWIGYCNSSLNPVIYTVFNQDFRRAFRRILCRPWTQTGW
T1 sequence (P22909 whole entry): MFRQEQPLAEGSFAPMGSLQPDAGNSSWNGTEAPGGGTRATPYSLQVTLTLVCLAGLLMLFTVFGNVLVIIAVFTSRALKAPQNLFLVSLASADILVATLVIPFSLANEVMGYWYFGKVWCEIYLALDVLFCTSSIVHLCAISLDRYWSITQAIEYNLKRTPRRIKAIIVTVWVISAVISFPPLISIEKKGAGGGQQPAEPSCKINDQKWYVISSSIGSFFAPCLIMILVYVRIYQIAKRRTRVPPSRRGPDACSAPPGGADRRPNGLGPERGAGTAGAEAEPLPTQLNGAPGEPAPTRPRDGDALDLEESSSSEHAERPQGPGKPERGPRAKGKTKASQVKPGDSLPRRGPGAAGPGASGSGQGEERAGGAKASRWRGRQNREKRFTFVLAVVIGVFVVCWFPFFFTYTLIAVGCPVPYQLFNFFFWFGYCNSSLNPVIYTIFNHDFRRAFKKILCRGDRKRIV
Put plainly: Binding affinity to the alpha-2 adrenergic receptor of rat cerebral cortex assayed using [3H]idazoxan as radioligand. The assay is classed as tissue-based.

Assay [2] addresses T1, Adrenergic receptor alpha-2. Put plainly: Binding affinity to alpha-2 adrenergic receptor of rat cerebral cortex assayed using [3H]yohimbine as radioligand. Type of assay: tissue-based.
Assay [3] deals with T2, Adrenergic receptor alpha-1 (Rattus norvegicus, UniProt P15823+P23944+P43140).
T2 sequence (P15823 whole entry): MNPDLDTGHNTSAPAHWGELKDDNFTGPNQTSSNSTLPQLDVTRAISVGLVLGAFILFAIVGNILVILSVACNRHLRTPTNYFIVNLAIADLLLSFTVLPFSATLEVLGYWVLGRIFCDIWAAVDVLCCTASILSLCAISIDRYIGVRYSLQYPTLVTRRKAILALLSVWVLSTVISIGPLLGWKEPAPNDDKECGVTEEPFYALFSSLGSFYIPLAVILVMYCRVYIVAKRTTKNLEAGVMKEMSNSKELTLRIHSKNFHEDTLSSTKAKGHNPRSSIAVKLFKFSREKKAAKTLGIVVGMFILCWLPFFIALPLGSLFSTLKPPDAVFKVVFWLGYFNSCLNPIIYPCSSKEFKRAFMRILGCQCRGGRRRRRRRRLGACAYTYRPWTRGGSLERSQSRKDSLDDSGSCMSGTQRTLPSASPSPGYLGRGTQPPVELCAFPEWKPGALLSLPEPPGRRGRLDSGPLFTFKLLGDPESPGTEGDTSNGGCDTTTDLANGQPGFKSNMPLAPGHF
T2 sequence (P23944 whole entry): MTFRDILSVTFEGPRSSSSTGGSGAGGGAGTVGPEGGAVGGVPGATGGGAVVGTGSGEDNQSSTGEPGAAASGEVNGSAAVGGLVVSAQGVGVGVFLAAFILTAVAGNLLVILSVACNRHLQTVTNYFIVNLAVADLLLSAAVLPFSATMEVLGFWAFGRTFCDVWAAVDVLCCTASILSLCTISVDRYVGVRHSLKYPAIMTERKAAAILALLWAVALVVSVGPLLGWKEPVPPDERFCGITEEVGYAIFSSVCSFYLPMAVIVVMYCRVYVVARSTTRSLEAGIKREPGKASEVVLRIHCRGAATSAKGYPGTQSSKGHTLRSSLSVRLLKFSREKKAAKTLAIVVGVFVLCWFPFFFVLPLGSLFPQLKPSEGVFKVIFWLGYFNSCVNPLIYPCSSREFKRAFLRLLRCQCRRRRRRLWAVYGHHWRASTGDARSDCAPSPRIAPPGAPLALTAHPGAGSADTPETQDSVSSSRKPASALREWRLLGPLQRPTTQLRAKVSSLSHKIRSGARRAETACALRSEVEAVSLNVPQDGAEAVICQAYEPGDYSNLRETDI
T2 sequence (P43140 whole entry): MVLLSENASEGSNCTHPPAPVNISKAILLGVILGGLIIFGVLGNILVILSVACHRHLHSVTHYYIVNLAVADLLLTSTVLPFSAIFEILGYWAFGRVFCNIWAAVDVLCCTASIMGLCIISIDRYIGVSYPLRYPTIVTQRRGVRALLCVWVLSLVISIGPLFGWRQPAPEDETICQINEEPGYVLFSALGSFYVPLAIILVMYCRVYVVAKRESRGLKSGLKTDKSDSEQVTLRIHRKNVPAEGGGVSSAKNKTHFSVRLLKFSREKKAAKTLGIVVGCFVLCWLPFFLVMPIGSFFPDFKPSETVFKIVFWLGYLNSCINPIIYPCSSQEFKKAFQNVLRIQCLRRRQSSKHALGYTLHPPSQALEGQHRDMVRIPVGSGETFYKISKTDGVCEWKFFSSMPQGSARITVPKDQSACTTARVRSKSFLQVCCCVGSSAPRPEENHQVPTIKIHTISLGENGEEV
The experiment in a line: Binding affinity determined to alpha-1 adrenergic receptor of rat cerebral cortex using [3H]prazosin as radioligand. Type of assay: tissue-based.

In assay [4] the target is T1, Adrenergic receptor alpha-2. Put plainly: Binding affinity was determined against alpha-2 adrenergic receptor of rat cerebral cortex using [3H]idazoxan as radioligand. The assay is classed as tissue-based.
The target is the same in assay [5]. Put plainly: Binding affinity was determined against alpha-2 adrenergic receptor of rat cerebral cortex using [3H]yohimbine as radioligand. The assay is classed as tissue-based.
For assay [6], the target named is T3, Adrenergic receptor alpha-2 (Rattus norvegicus) (UniProt P22086+P19328+P22909). The experiment in a line: Selectivity ratio is the antilog of the [3H]-yohimbine pKi minus the [3H]prazosin pKi. Type of assay: protein assay.
Assay [7] deals with T3, Adrenergic receptor alpha-2 (Rattus norvegicus). Put plainly: Antilog of the [3H]-idazoxan pKi minus the [3H]yohimbine pKi was determined. Type of assay: protein assay.

With `Cl.Cl.Fc1cccc2c1CN(CC1=NCCN1)CC2`, the “Log Ki” value in assay [1] was -8.27; in assay [2], -7.25; in assay [3], -5.5.
On to `CCC1c2ccccc2CCN1CC1=NCCN1.Cl.Cl` (stereo not drawn), for which the results for the “Log Ki” value in assay [1], in assay [2] and in assay [3] were -6.31, -6.16 and < -5, respectively.
For `COc1cc2c(cc1OC)CN(CC1=NCCN1)CC2.Cl.Cl`, the entries for the “Log Ki” value in assay [1], in assay [2] and in assay [3] were -6.13, -5.87 and < -5, respectively.
Regarding `Cl.Cl.Clc1ccc2c(c1Cl)CN(CC1=NCCN1)CC2`, the results for the “Log Ki” value in assay [1], in assay [2] and in assay [3] were -7.68, -6.52 and < -5, respectively.
On to `Cl.Cl.Clc1ccc2c(c1)CCN(CC1=NCCN1)C2`, for which the “Log Ki” value in assay [4] was -6.83; in assay [5], -6.18; in assay [3] it was < -5. Moreover, the Selectivity ratio in assay [6] stood at 15. The Ratio in assay [7] was determined as 4.
Turning to `CC1(C)c2ccccc2CCN1CC1=NCCN1.Cl.Cl`, the “Log Ki” value in assay [1] is -6.68; in assay [2], -6; in assay [3], < -5.
Consider `COc1ccc(OC)c2c1CCN(CC1=NCCN1)C2.Cl.Cl`, for which the “Log Ki” value is given as -7.8 in assay [1], -7.51 in assay [2] and -4.8 in assay [3].
In the same order, the values of `CC1Cc2ccccc2CN1CC1=NCCN1.Cl.Cl` (stereo not drawn) are -7.38, -6.9 and < -5.
Consider `Cl.Cl.Fc1cccc2c1CCN(CC1=NCCN1)C2`, for which the “Log Ki” value is listed as -8.39 in assay [1], -7.48 in assay [2] and -5.55 in assay [3].
As for `Cl.Nc1cccc2c1CCN(CC1=NCCN1)C2`, the “Log Ki” value in assay [1] was -6.99; in assay [2] it was -6.17; in assay [3], < -5.
`COc1ccc(OC)c2c1CCN(CC1=NCCN1)C2C.Cl.Cl` (stereo not drawn): the figures for the “Log Ki” value in assay [4], in assay [5] and in assay [3] were -7.02, -7.71 and -5.19, respectively. For the same compound, the Selectivity ratio in assay [6] stood at 332. For the same compound, the Ratio in assay [7] is 0.2.
As for `Cl.Cl.Clc1ccc2c(c1Cl)CCN(CC1=NCCN1)C2`, the “Log Ki” value in assay [1] is on record as -7.67; in assay [2], -6.42; in assay [3], < -5.
Take `COc1ccc2c(c1OC)CCN(CC1=NCCN1)C2.Cl.Cl`: the “Log Ki” value in assay [4] is on record as -6.24; in assay [5] it was -6.44; in assay [3] it was < -5. In assay [6], the Selectivity ratio came to 28. Further, the Ratio in assay [7] worked out at 0.6.
`Cl.Cl.Clc1cccc2c1CCN(CC1=NCCN1)C2`: the “Log Ki” value in assay [1] is recorded as -7.8; in assay [2], -7.65; in assay [3] it was -5.68.
For `CC1c2ccccc2CCN1CC1=NCCN1.Cl.Cl` (stereo not drawn), the “Log Ki” value in assay [1] is recorded as -7.32; in assay [2], -7.19; in assay [3], -5.14.
In the case of `Cl.Cl.c1ccc2c(c1)CN(CC1=NCCN1)C2`, the “Log Ki” value in assay [4] is given as -8.07; in assay [5], -6.91; in assay [3], -5.43. Also, the Selectivity ratio in assay [6] was 30. In assay [7], the Ratio amounted to 14.
Turning to `Cl.Cl.O=[N+]([O-])c1cccc2c1CCN(CC1=NCCN1)C2`, the “Log Ki” value in assay [1] is -7.14; in assay [2] it was -6.13; in assay [3], < -5.
For `Cl.Cl.c1ccc2c(c1)CCN(CC1=NCCN1)C2`, the “Log Ki” value in assay [1] is recorded as -7.77; in assay [2] it was -6.32; in assay [3] it was -5.67.
On the same counts, the results for `COc1cc2c(c(OC)c1)CN(CC1=NCCN1)CC2.Cl.Cl` are -7.2, -6.29 and < -5.
In the case of `Cl.Cl.Clc1ccc(Cl)c2c1CCN(CC1=NCCN1)C2`, the “Log Ki” value in assay [1] was -8.12; in assay [2], -7.14; in assay [3], -5.5.
`Cl.Cl.Clc1cccc2c1CN(CC1=NCCN1)CC2`: the “Log Ki” value in assay [4] was -8.23; in assay [5], -6.67; in assay [3] it was -5.8. Further, the Selectivity ratio in assay [6] amounted to 7. Moreover, the Ratio in assay [7] amounted to 36.
Turning to `Cl.Cl.Clc1cccc2c1CN(CC1=NCCN1)C2`, the “Log Ki” value was -8.38 in assay [1], -7.71 in assay [2] and -6.05 in assay [3].
In the case of `Cc1cccc2c1CCN(CC1=NCCN1)C2.Cl.Cl`, the “Log Ki” value in assay [1] is reported as -7.38; in assay [2] it was -6.57; in assay [3] it was -5.26.
Consider `COc1cccc2c1CCN(CC1=NCCN1)C2.Cl.Cl`, for which the “Log Ki” value was -8 in assay [1], -7.07 in assay [2] and -4.72 in assay [3].
`CC1c2cccc(Cl)c2CCN1CC1=NCCN1.Cl.Cl` (stereo not drawn): the entries for the “Log Ki” value in assay [1], in assay [2] and in assay [3] were -7.62, -6.74 and -5.2, respectively.
For `C=CCC1c2ccccc2CCN1CC1=NCCN1.Cl.Cl` (stereo not drawn), the “Log Ki” value in assay [1] was -6.41; in assay [2], -5.97; in assay [3] it was < -5.
